{"source": "patent US12404244B2", "about": "“Pan-KIT kinase inhibitor having quinoline structure and application thereof” (Tarapeutics Science Inc., priority 2018, dated 2025)", "type_in_all_cases": "in vivo", "settings_in_all_cases": "oral, every day", "key": {"[1]": {"tested_on": "TEL-cKIT/T670I-BaF3 mouse tumor model", "assay": "Tumor-grafted mouse model established with TEL-cKIT/T670I-BaF3 cells", "experimental": "(§1) In this example Compound 1 and Compound 2 were respectively tested in TEL-cKIT/T670I-BaF3, TEL-cKIT/Y823D-BaF3, TEL-cKIT/D820G-BaF3 and GIST-T1-T670I mouse models.\n(§2) Experimental protocols were as follows. • (1) Bal b/c female mice aged 4-6 weeks were purchased from Beijing Weitong Lihua Laboratory Animal Co., Ltd., and the mice were raised in an SPF laboratory. The drinking water and padding were sterilized by autoclaving. All operations on mice were conducted under aseptic conditions. • (2) About 5×10^6 TEL-cKIT/T670I-BaF3, TEL-cKIT/Y823D-BaF3, TEL-cKIT/D820G-BaF3 or GIST-T1-T670I cells were respectively injected subcutaneously onto the left back of all mice on Day 0. • (3) From Day 6, for the TEL-cKIT/T670I-BaF3 mouse model the corresponding mice were administrated orally every day with methylcellulose (HKI) as the vehicle (5 mice); with Compound 1 and Compound 2 at a dosage of 10 mg/kg, 20 mg/kg, 40 mg/kg, 100 mg/kg mouse weight (5 mice in each group); and with Sunitnib (purchased from MedChemExpress, China) at a dosage of 40 mg/kg mouse weight (5 mice). From day 6, for the TEL-cKIT/Y823D-BaF3 and TEL-cKIT/D820G-BaF3 mouse models the corresponding mice were administrated orally every day with methylcellulose (HKI) as the vehicle (5 mice); with Compound 1 and Compound 2 at a dosage of 40 mg/kg, 80 mg/kg mouse weight (5 mice in each group); and with Sunitnib (purchased from MedChemExpress, China) at a dosage of 40 mg/kg mouse weight (5 mice). From day 15, for the GIST-T1-T670I mouse model the corresponding mice were administrated orally every day with methylcellulose (HKI) as the vehicle (5 mice); with Compound 1 and Compound 2 at a dosage of 20 mg/kg, 40 mg/kg, 80 mg/kg mouse weight (5 mice in each group); and with Sunitnib at a dosage of 40 mg/kg mouse weight (5 mice). • (4) From day 6 (TEL-cKIT/T670I-BaF3, TEL-cKIT/Y823D-BaF3, TEL-cKIT/D820G-BaF3 mouse model) and From day 15 (GIST-T1-T670I mouse model), respectively, the length/width of the subcutaneous tumor were measured with a vernier caliper every day and the body weight of the mouse was recorded every day so as to determine the effects of Compound 1 and Compound 2 on the body weight and tumor size of the mice, respectively. • (5) The mice were sacrificed on Day 11 after administration for the TEL-cKIT/T670I-BaF3 mouse model, on Day 9 after administration for the TEL-cKIT/Y823D-BaF3 and TEL-cKIT/D820G-BaF3 mouse models, and on Day 28 after administration for the GIST-T1-T670I mouse model. The subcutaneous tumors were taken out, and the tumors were weighed and compared. • (6) The growth trend of subcutaneous tumors was calculated and the tumor size was calculated according to: length×width×width/2 mm^3."}, "[2]": {"tested_on": "TEL-cKIT/Y823D-BaF3 mouse tumor model", "assay": "Tumor-grafted mouse model established with TEL-cKIT/Y823D-BaF3 cells", "experimental": "as §1, §2"}, "[3]": {"tested_on": "GIST-T1-T670I mouse tumor model", "assay": "Tumor-grafted mouse model established with GIST-T1-T670I cells", "experimental": "as §1, §2"}, "[4]": {"tested_on": "TEL-cKIT/D820G-BaF3 mouse tumor model", "assay": "Tumor-grafted mouse model established with TEL-cKIT/D820G-BaF3 cells", "experimental": "as §1, §2"}}}
{"smiles": "COc1cc2nccc(Oc3ccc(NC(=O)Cc4ccc(C)c(C(F)(F)F)c4)cc3)c2cc1OC", "note": "[Example 1, N-(4-((6,7-dimethoxyquinolin-4-yl)oxy)phenyl)-2-(4-methyl-3-(trifluoromethyl)phenyl)acetamide]", "values": [{"measurement": "inhibitory effects against tumor in mice", "setting": "[1]; 40 mg/kg", "result": "excellent inhibitory effects against tumor in mice"}, {"measurement": "influence on mice weight", "setting": "[1]", "result": "without significant influence on mice weight"}, {"measurement": "inhibitory effects against tumor in mice", "setting": "[2]; 40 mg/kg", "result": "excellent inhibitory effects against tumor in mice"}, {"measurement": "influence on mice weight", "setting": "[2]", "result": "without significant influence on mice weight"}, {"measurement": "inhibitory effects against tumor in mice", "setting": "[3]; 40 mg/kg", "result": "excellent inhibitory effects against tumor in mice"}, {"measurement": "influence on mice weight", "setting": "[3]", "result": "without significant influence on mice weight"}, {"measurement": "inhibitory effects against tumor in mice", "setting": "[4]; 40 mg/kg", "result": "excellent inhibitory effects against tumor in mice"}, {"measurement": "influence on mice weight", "setting": "[4]", "result": "without significant influence on mice weight"}]}
{"smiles": "COc1cc2nccc(Oc3ccc(NC(=O)Cc4ccc(Cl)c(C(F)(F)F)c4)cc3)c2cc1OC", "note": "[Example 2, N-(4-((6,7-dimethoxyquinolin-4-yl)oxy)phenyl)-2-(4-chloro-3-(trifluoromethyl)phenyl)-acetamide]", "values": [{"measurement": "inhibitory effects against tumor in mice", "setting": "[1]; 40 mg/kg", "result": "excellent inhibitory effects against tumor in mice"}, {"measurement": "tumor inhibition rate", "setting": "[1]; 40 mg/kg", "result": "≥ 80", "unit": "%"}, {"measurement": "influence on mice weight", "setting": "[1]", "result": "without significant influence on mice weight"}, {"measurement": "inhibitory effects against tumor in mice", "setting": "[2]; 40 mg/kg", "result": "excellent inhibitory effects against tumor in mice"}, {"measurement": "tumor inhibition rate", "setting": "[2]; 40 mg/kg", "result": "≥ 80", "unit": "%"}, {"measurement": "influence on mice weight", "setting": "[2]", "result": "without significant influence on mice weight"}, {"measurement": "inhibitory effects against tumor in mice", "setting": "[3]; 40 mg/kg", "result": "excellent inhibitory effects against tumor in mice"}, {"measurement": "tumor inhibition rate", "setting": "[3]; 40 mg/kg", "result": "≥ 80", "unit": "%"}, {"measurement": "influence on mice weight", "setting": "[3]", "result": "without significant influence on mice weight"}, {"measurement": "inhibitory effects against tumor in mice", "setting": "[4]; 40 mg/kg", "result": "excellent inhibitory effects against tumor in mice"}, {"measurement": "tumor inhibition rate", "setting": "[4]; 40 mg/kg", "result": "≥ 80", "unit": "%"}, {"measurement": "influence on mice weight", "setting": "[4]", "result": "without significant influence on mice weight"}]}
